Results: US4221794A, “Method of imparting immunomodulating and antiviral activity” (Newport Pharmaceuticals International, Inc., priority 1979, dated 1980)
In brackets after ≈: the same amount, converted by molar mass. Where two headings read alike, the source gives them in different places.

Columns and labels:
[1] = Phase solubility study with DIP.PAcBA; assay type: physicochemical; conditions: constant pH
Text: This is indicative of an interaction occuring in solution to yield a complex.

L-1210 leukemic cells = experiment: Anti-leukemic activity, inhibition of L-1210 growth; assay type: cell-based, mouse
Description: Anti-Leukemic Activity (Inhibition of L-1210 Growth)
Leukemic cells isolated from mice bearing the L-1210 tumor are cultured in vitro and their growth can be measured by counting the number of cells in the culture over a period of time. The incorporation of a test substance into the media will prevent the growth of the leukemic cells, an indication of an effective anti-leukemic agent.
I50 (concentration of drug inhibiting growth of L-1210) by % for the tested compounds was as follows:
To Measure Inhibition of Leukemic Cell (L-1210) Growth
Check to see that there is adequate cell growth in the stock cultures. Use cells 48-72 hours after transfers are done.
Weigh out the drugs at 50 times the desired final concentration and made serial dilutions.
Make up the final medium using 500 mls McCoy's 5A medium, 15% fetal calf serum, 5 mls penicillin-streptomycin solution, and 5 mls antibiotic-antimycotic solution and let it stand at room temperature.
Using sterile technique, add 0.1 ml of the drug dilutions to each tube.
Add an appropriate quantity of cells to the prepared medium. After mixing, remove a 0.5 ml sample, place it in a vial containing […] of saline, and count it on the Coulter Counter. Multiply the count by 40 to compensate for the 40 fold dilution (0.5 ml into […] and record the inoculum.
Add 5 mls of cell suspension to each tube. Swirl the bottle every 4 tubes to insure a more uniform distribution of cells.
Tighten the caps and place in the CO2 incubator at 36°-38° for 96 hours.
After 96 hours remove the tubes from the incubator and count the contents of each on the Coulter Counter. Multiply all counts by 40 and average the four counts for each drug dilution. If the count is less than the inoculum, record 100% inhibition. If the count is greater than the average of the eight control counts, record 0% inhibition. For all other counts use the following formula: [formula] 100%-% servival=inhibition of growth due to treatment.

A/Texas/77 (H3 N2) = experiment: Inhibition of influenza virus replication, A/Texas/77; assay type: cell-based, influenza virus A/Texas/77
A/Jap/305 (H2 N2) = experiment: Inhibition of influenza virus replication, A/Jap/305; assay type: cell-based, influenza virus A/Jap/305
A/PR8 (H0 N1) = experiment: Inhibition of influenza virus replication, A/PR8; assay type: cell-based
[2] = test system: Influenza A Swine 1976 (Hlsw -N1); assay type: cell-based; conditions: A/Swine/76 (Hlsw N1)
A2 Hong Kong (H2 N2) = experiment: Inhibition of influenza virus replication, A2 Hong Kong; assay type: cell-based
A/Dunedin/73 (H3 N2) = experiment: Inhibition of influenza virus replication, A/Dunedin/73; assay type: cell-based, influenza virus A/Dunedin/73

With CCCCCC[C@H]([C@H](C)O)n1cnc2c(=O)[nH]cnc21 (relative stereo) [NPT 15392, ERYTHRO-9-(2-HYDROXY-3-NONYL)HYPOXANTHINE] the “solubility with DIP.PAcBA (phase solubility)” value [1] was “increased solubility at increasing concentrations of DIP.PAcBA” and the IC50 (L-1210 leukemic cells; Mus musculus, L1210, tissue culture, read-out: 50% inhibition of L-1210 cells) was 28 µg/mL (≈ 101 µM).

In the case of CCCCCC[C@H]([C@H](C)O)n1cnc2c(=O)[nH]cnc21 (relative stereo) [NPT 15410], the “Inhibition of influenza virus replication” value (A/Texas/77 (H3 N2); A/Texas/77, 1.0-10.0 μg/ml) is reported as “+ (20-30% Inhibition)”, the “Inhibition of influenza virus replication” value (A/Texas/77 (H3 N2); A/Texas/77, 10.0-100 μg/ml) is reported as “++++ (>70% Inhibition)” and the “Inhibition of influenza virus replication” value (A/Texas/77 (H3 N2); A/Texas/77, .01-1.0 μg/ml) is reported as “++ (30-50% Inhibition)”. The “Inhibition of influenza virus replication” value (A/Texas/77 (H3 N2); A/Texas/77, >100 μg/ml) was “++++ (>70% Inhibition)”, the “Inhibition of influenza virus replication” value (A/Jap/305 (H2 N2); A/Jap/305, 10.0-100 μg/ml) was “++++ (>70% Inhibition)” and the “Inhibition of influenza virus replication” value (A/Jap/305 (H2 N2); A/Jap/305, >100 μg/ml) was “++++ (>70% Inhibition)”. The “Inhibition of influenza virus replication” value (A/PR8 (H0 N1); A/PR8, 1.0-10.0 μg/ml) was “++ (30-50% Inhibition)”, the “Inhibition of influenza virus replication” value (A/PR8 (H0 N1); A/PR8, 10.0-100 μg/ml) was “++++ (>70% Inhibition)” and the “Inhibition of influenza virus replication” value (A/PR8 (H0 N1); A/PR8, .01-1.0 μg/ml) was “++ (30-50% Inhibition)”. For the same molecule, the “Inhibition of influenza virus replication” value (A/PR8 (H0 N1); A/PR8, >100 μg/ml) was “+++ (50-70% Inhibition)”, the “Inhibition of influenza virus replication” value ([2]; 1.0-10.0 μg/ml) was “++ (30-50% Inhibition)” and the “Inhibition of influenza virus replication” value ([2]; 10.0-100 μg/ml) was “++++ (>70% Inhibition)”. The “Inhibition of influenza virus replication” value ([2]; .01-1.0 μg/ml) was “+++ (50-70% Inhibition)”, the “Inhibition of influenza virus replication” value ([2]; >100 μg/ml) was “++++ (>70% Inhibition)” and the “I50 (concentration of drug inhibiting growth of L-1210)” value (L-1210 leukemic cells; 96 hours) was 54 micrograms/ml. For the same molecule, the “Potentiation Anti-Leukemia by DIP.PAcBA salt” value (L-1210 leukemic cells; salt compared with parent compound) was “Yes”, the “50% inhibition of L-1210 cells” value (L-1210 leukemic cells; tissue culture) was 54 µg/mL and the “Inhibition of influenza virus replication” value (A2 Hong Kong (H2 N2); 10.0-100 μg/ml) was “++ (30-50% Inhibition)”. The “Inhibition of influenza virus replication” value (A2 Hong Kong (H2 N2); >100 μg/ml) was “+++ (50-70% Inhibition)”, the “Inhibition of influenza virus replication” value (A/Dunedin/73 (H3 N2); A/Dunedin/73, 10.0-100 μg/ml) was “± (10-20% Inhibition)” and the “Inhibition of influenza virus replication” value (A/Dunedin/73 (H3 N2); A/Dunedin/73, >100 μg/ml) was “++ (30-50% Inhibition)”.
